Tests used:
[1] = test system: p21 and p27 in HEK293 cells and HEK293 NF-κB/Luciferase reporter clone; assay: Western blot of cell cycle regulatory proteins p21 and p27; type: cell-based, human; conditions: various concentrations, preliminary results
Text: The ubiquitin-proteasome pathway is an essential proteolytic system involved in cell cycle control by regulating the degradation of cyclins and cyclin-dependent kinase (Cdk) inhibitors such as p21 and p27. Pagano, et al., Science 269:682 (1995), Kisselev, et al., Chem Biol 8:739 (2001), King, et al., Science 274:1652 (1996). Furthermore, p21 and p27 protein levels are increased in the presence of proteasome inhibitors. Fukuchi, et al., Biochim Biophys Acta 1451:206 (1999), Takeuchi, et al., Jpn J Cancer Res 93:774 (2002).
The Western blots presented in FIG. 33 were reprobed using antibodies against p21 and p27 to determine the endogenous level of each protein and anti-Tubulin antibody was used to confirm equal loading of protein.

LPS-induced plasma TNF = assay: Inhibition of in vivo LPS-induced TNF; conditions: 0.125 or […] i.v., 30 minutes post-LPS (2 mg/kg i.p.), mice
Description: Male Swiss Webster mice (12/group weighing 20-25 g) were injected with LPS (2 mg/kg) by the i.p. route. […] Ninety minutes after LPS injection, the mice were anesthetized with Isoflurane and bled by cardiac puncture to obtain plasma. Remaining blood pellet was then resuspended in 500 μL of PBS to wash away residual serum proteins and centrifuged again. Supernatant was removed and blood pellet frozen for analysis of proteasome inhibition in packed whole blood lysate.
Animals were dosed i.v. with 4 ml/kg. A vehicle control solution was also prepared by making the same 1:160 dilution with 100% DMSO into 10% solutol solution giving a final concentration of 9.375% solutol in water and 0.625% DMSO. Measurements of plasma TNF were performed using the Biosource mTNF Cytoset kit (Biosource Intl., Camarillo, Calif.; catalog #CMC3014) according to manufacturer's instructions. Samples were diluted 1:60 for the assay.

For `C[C@@]12OC(=O)[C@]1([C@@H](O)[C@@H]1C=CCCC1)NC(=O)[C@@H]2CCCl` [Formula II-16, Salinosporamide A], the “p21 and p27 protein levels” value [1] was “elevated” and the “reduction of LPS-induced plasma TNF levels” value (LPS-induced plasma TNF) was “approximately 65%”.
